Data taken from US8592451B2, “Reversible nondepolarizing neuromuscular blockade agents and methods for their use” (Cornell University, priority 2009, dated 2013).
“Also recorded” adds a separate entry of the source.

Assays:
[1] = tested on: twitch contractions of the extensor digitorum muscle; experiment: Rhesus monkey anesthesia bioassay for potency and duration (substituent and stereochemical comparison, preliminary studies); type: in vivo; details: rhesus monkeys; for Potency (ED95 mg/kg): intravenously; for Potency (ED95 mg/kg) / Duration at 4X ED95 / Duration (minutes), from injection to 95% twitch recovery: preliminary studies; for Duration at 4X ED95: head prints no unit (column beside it: minutes); for Duration (minutes), from injection to 95% twitch recovery: dose not printed (beside ED95 column)
Protocol: Two stereoisomeric structures, CW 002 (R-trans, R-trans), and CW 003 (R-cis, R-cis) were tested in the rhesus monkey anesthesia bioassay for potency and duration. A third compound, CW 001 (R-trans, R-trans) bearing an additional methoxyl group on each of the two benzyl groups in the molecule, was also tested.
Rhesus monkeys were anesthetized with ketamine (7.5 mg/Kg) given intramuscularly or intravenously. Anesthesia was maintained with a mixture of isoflurane (1.5%), nitrous oxide (60%) and oxygen (40%). The common peroneal nerve was stimulated supramaximally with square wave pulses of 0.2 m sec duration at a rate of 0.15 Hz. Twitch contractions were recorded via the tendon of the extensor digitorum muscle.
In all animals, the trachea was intubated and ventilation was controlled at 12-15 ml/kg, 18-24 breaths per minute. A peripheral vein and artery were cannulated for drug administration and for recording of arterial pressure, respectively. In preliminary studies a neuromuscular blocking agent having one of the following structures was administered intravenously.

[2] = tested on: twitch of the extensor digitorum; experiment: Neuromuscular blocking potency and duration in anesthetized rhesus monkeys; type: in vivo, rhesus monkeys (Macaca mulatta); details: for Duration (± SD/SEM), from injection to recovery of twitch to 95% of baseline: spontaneous recovery
Protocol: Experiments were approved by the Institutional Animal Care and Use Committee of Weill Medical College of Cornell University (New York, N.Y.) and of Albany Medical College (Albany, N.Y.), where the studies were conducted. A colony of 10 adult male monkeys (Macaca mulatta) weighing 8-18 kg was studied at ˜6 week intervals. Animals were housed and cared for in accordance with the Guide for Care and Use of Laboratory Animals (National Research Council, Washington, D.C.). They were fed a standard Old World monkey diet, enriched with fruits and vegetables, and other dietary novelties and were followed throughout the study to verify normal health by physical examination, body weight, and clinical laboratory studies (Complete Blood Count, Blood Urea Nitrogen and creatinine, and liver function tests).
On the day of each study, monkeys received ketamine (7-10 mg/kg i.m.) followed by tracheal intubation under topical anesthesia with 4% lidocaine. Ventilation was controlled at 10 mL/kg and 20 breaths/min with isoflurane (1.0-2.0%) and N2O/O2 (2:1 mixture). Ringers lactate was administered at ˜10 ml kg^−1 h^−1. Arterial pressure was monitored from a femoral, superficial tibial, or radial (22 gauge) cannula. Heart rate was measured by tachograph from the arterial pulse wave. Core temperature was kept at 36.5-38.0° C. by warming blankets. Electrocardiogram and pulse oximetry were monitored continuously.
Needle electrodes (25 gauge) transmitting square-wave pulses of 0.2 msec duration at supramaximal voltage which were generated by a Grass S-88 stimulator (Grass Instruments, Quincy, Mass.) were placed at the peroneal nerve at the knee to elicit twitch responses of the extensor digitorum of the foot at 0.15 Hz. A small slip (10-20%) of the tendon was dissected free under sterile technique and tied to a Grass FT 10 force transducer (Grass Instruments, Quincy, Mass.) at a baseline tension of 50 gm. Train-of four stimulation (TOF, 2 Hz for 2 sec) was interposed at appropriate points, especially 1-2 min prior to NMBA dosing and following recovery of twitch to 95% of baseline, where TOF was subsequently evaluated every 1-2 min.
Recordings of circulatory and neuromuscular data were made on a Grass 7B polygraph (Grass Instruments). A baseline period of 15-20 min was allowed for stabilization of recordings prior to dosing.^2
Dose-response curves for twitch blockade by gantacurium, CW 002, CW 011, cisatracurium, CW002-Cys, NB 938-69, NB 1064-81, NB 802-17 (CW 001), NB 832-65, and NB 1163-79, structures of which are all shown above, were generated as follows. […] Successive doses were separated by at least three estimated half lives beyond complete recovery of the previous dose to TOF of 110-120%, which is normal for these monkeys. Only the first one or two doses yielding 5 to 99% blockade were included from any single experiment for computation of dose-response data.
Comparative studies of spontaneous recovery versus antagonism/reversal were done at least 3 estimated half-lives following dose-response studies.
ED 50 and ED 95 were computed from the regression of log dose vs. the logit of percentage blockade of twitch.
CW002-Cys, the L-cysteine adduct of CW 002, was available in limited quantity and was administered in cumulative fashion to three animals to compare approximate potency and duration of effect versus its parent compound CW 002.

[3] = tested on: twitch of the extensor digitorum; experiment: Reversal of neuromuscular blockade by L-cysteine or neostigmine in anesthetized rhesus monkeys; type: in vivo, rhesus monkeys (Macaca mulatta)
Protocol: A control dose of 0.15 mg/kg CW 002 was allowed to recover spontaneously to TOF 110-120%. A second dose was given 60 minutes later, followed one minute afterwards by either neostigmine (0.05 mg/kg+atropine 0.05 mg/kg) or L-cysteine (10, 20, 30 or 50 mg/kg). Total duration and 5-95% recovery intervals were compared during spontaneous recovery vs. antagonism by L-cysteine or reversal by neostigmine.
This series of paired comparisons was designed to generate dose-response data comparing spontaneous recovery of high doses of CW 011 (from 4 to 64× ED95) versus immediate antagonism at +1 min by an optimal dose of L-cysteine (50 mg/kg), previously determined during studies of immediate antagonism of CW 002. This experiment was done to explore the limits of chemical antagonism by L-cysteine of these olefinic diester neuromuscular blocking drugs, using CW 011 as a typical example with an intermediate duration of action. Five groups of animals first received a control dose of CW 011 at 4, 8, 16, 32 or 64× ED 95 (0.1 to 1.6 mg/kg). Sixty minutes after spontaneous recovery of the control dose to TOF 110-120%, the same dose was repeated, followed 1 min later by L-cysteine (50 mg/kg). Total duration of action and 5-95% recovery interval were compared during spontaneous recovery and following antagonism by L-cysteine
The reversal of neuromuscular blockade by cysteine (5-50 mg/kg i.v.) was studied. Reversal was tested as follows: full paralysis was induced by injection of a dose of approximately 2-6× ED 95 of the compound in question. After spontaneous recovery of this dose, a second identical dose was given 15-30 min later. Cysteine was then given at +1 min after injection of the neuromuscular blocking drug at a point where no twitch was apparent (“immediate reversal”) or at the beginning of recovery from neuromuscular blockade at two percent twitch height (“classical reversal”). Comparisons were made among compounds with respect to rapidity and ease of cysteine reversal, by comparing 5-95% recovery times, and total durations of action (injection to 95% twitch recovery). Spontaneous recovery was compared with cysteine-accelerated recovery. […]

[4] = L-cysteine adduction kinetics in vitro (HPLC); type: physicochemical; details: pH 7.4, 37° C.; for NMBA peak area / [NMBA] remaining / ln* = ln (([NMBA]t[L-cysteine]t=0)/([NMBA]t=0[L-cysteine]t)): CW 002 1000 μg/mL + 1.05 equiv. L-cysteine
Protocol: In a second experiment, to evaluate degradation in the presence of L-cysteine, buffered solutions (pH 7.4) of gantacurium, CW 002 or CW 011 were freshly prepared at 37° C. to give experimental concentrations of 1000 μg/mL (CW 002 and CW 011) and 200 μg/mL (gantacurium), after addition to and mixing with a 5% Molar excess of L-cysteine at time=0.
The concentration of neuromuscular blocking agent/parent compound remaining at specified time points after mixing was determined by high performance liquid chromatography. The concentration of blocking agent at each time point was determined from a separately prepared reaction mixture, due to the rapid rate of L-cysteine adduction. The reaction rate constant for the second order reaction of each neuromuscular blockade agent (NMBA) with L-cysteine was derived by plotting the natural log of ([NMBA]t[L-cysteine]t=0/[NMBA]t=0[L-cysteine]t) vs. time.
Concentrations selected were 200, 100 and 50 μg/ml which are approximately proportional to the relative potencies (ED 95) of gantacurium, CW 002 and CW 011 respectively. A degradation (adduction) pathway in the presence of L-cysteine for each of the three compounds was proposed.
The reaction of L-cysteine with CW 002, CW 011 or gantacurium is first order in the case of both the neuromuscular blockade agent (NMBA) and L-cysteine, represented by the rate equation (1). d[Adduct]/dt=−d[NMBA]/dt=ka[NMBA][L-cysteine] (1)
Calculation of the L-cysteine adduction half time requires experimental derivation of the reaction rate constant, ka, for each compound. The initial concentrations of NMBA and L-cysteine are unequal in the experiments conducted for this study, thus integration of equation 1 gives equation 2, where [NMBA]0 is the NMBA concentration at time equals 0 and [NMBA]t is the NMBA concentration at a time point, t.
[formula] A plot of the ln(([NMBA]t [L-cysteine]0)/([NMBA]0 [L-cysteine]t)) versus time (ln* vs. t) gives a line, with slope equal to ka([NMBA]0−[L-cysteine]0). An adduction reaction half time can be calculated by solving for ka to be used in equation 3.
NMBA standard solutions were prepared by a method similar to that used to prepare hydrolysis standards. The standards were prepared at 1000 μg/mL for CW 002 and CW 011 and 200 μg/mL for gantacurium.
Solutions used for determination of NMBA concentration at the reported times for CW 002 and CW 011 were prepared as follows: L-cysteine hydrochloride monohydrate was charged to a volumetric flask in de-ionized water. A 5 mL aliquot of the L-cysteine solution (1.05 equiv. L-cysteine with respect to NMBA) was transferred by volumetric pipette to a flask held at 37.0±0.3° C. CW 002 or CW 011 was then charged to a separate 25 mL volumetric flask and diluted to volume with pH 7.4 phosphate buffer at 37.0° C. The NMBA solution was then immediately transferred to the flask containing L-cysteine to give an initial NMBA concentration of 1000 μg/mL. Solutions used for determination of gantacurium concentration versus time were prepared in a similar manner to give an initial concentration of 200 μg/mL. T=0 was defined as the time of addition of NMBA solution to L-cysteine solution. The times listed in the results table show the point of HPLC sample injection following mixing of L-cysteine and NMBA at time=0 (Table 1, below).
Rate constants were calculated using equation (3) and the slope of the trend line derived from each data set. The strong linear correlation of the data within each set supports the use of second order kinetics for analysis of the cysteine adduction reactions.
Reaction half times were calculated using equation 4 and the experimentally determined rate constants. The initial NMBA concentrations were chosen to reflect the relative potency observed in vivo.

## COc1cc2c(cc1OC)[C@@H](Cc1cc(OC)c(OC)c(OC)c1)[N@+](C)(CCCOC(=O)/C=C/C(=O)OCCC[N@+]1(C)CCc3cc(OC)c(OC)cc3[C@H]1Cc1cc(OC)c(OC)c(OC)c1)CC2 [NB 802-17]
[1]
  reversibility of effect by cysteine or glutathione: reversible
  Potency (ED95 mg/kg): 0.04 mg/kg
  Duration at 4X ED95: 50-60
  Duration (minutes), from injection to 95% twitch recovery: 30 to 40 min
[2]; administered dose 0.03 mg/kg
  Duration (± SD/SEM), from injection to recovery of twitch to 95% of baseline: 35.0 ± 15.0 min
[2]; administered dose 0.10 mg/kg
  Duration (± SD/SEM), from injection to recovery of twitch to 95% of baseline: 49.4 ± 5.8 min
[2]; twitch blockade, monkeys under isoflurane, twitch at 0.15 Hz, calculated from dose-response curve
  ED 95 (± SD/SEM): 0.033 ± 0.005 mg/kg

## COc1ccc(C[C@@H]2c3cc(OC)c(OC)cc3CC[N@@+]2(C)CCCOC(=O)/C=C/C(=O)OCCC[N@+]2(C)CCc3cc(OC)c(OC)cc3[C@H]2Cc2ccc(OC)c(OC)c2)cc1OC [CW 002]
[3]; CW 002 0.15 mg/kg (~4× ED 95), L-cysteine 10, 20, 30 or 50 mg/kg at +1 min
  immediate antagonism of blockade by L-cysteine (FIG. 1B): dose-related acceleration of recovery
[3]; CW 002 0.15 mg/kg (~4× ED 95), neostigmine 0.05 mg/kg + atropine 0.05 mg/kg at +1 min
  immediate antagonism of blockade by neostigmine (FIG. 1A): not achieved significantly faster than the spontaneous reversal; also recorded: did not shorten recovery
[3]; CW 002 0.15 mg/kg, all cysteine concentrations tested (10 to 50 mg/kg)
  time to reversal of blockade with cysteine (FIG. 1B): less than 6 minutes
[3]; CW 002 0.15 mg/kg, higher cysteine doses
  time from cysteine administration to beginning of reversal (FIG. 1B): 2 to 3 min
[3]; CW 002 0.15 mg/kg, no reversal agent
  time to spontaneous reversal of blockade (FIG. 1): more than 12 minutes
[3]; cysteine (L or D) or glutathione
  reversibility of neuromuscular blockade by thiol compounds: reversible
[3]; immediate reversal
  effect of neostigmine given immediately after the blocking drug: ineffective
[3]; neostigmine given at beginning of spontaneous recovery, e.g. at 2% twitch height
  classical antagonism of neuromuscular blockade by neostigmine: showed antagonism
[1]
  reversibility of effect by cysteine or glutathione: reversible
  Potency (ED95 mg/kg): 0.04 mg/kg
  Duration at 4X ED95: 30-35
  Duration (minutes), from injection to 95% twitch recovery: 20 to 25 min
[4]; Trial 1, 142 Sec
  NMBA peak area: 2746.0 mAU's
  [NMBA] remaining: 224 µM
  ln* = ln (([NMBA]t[L-cysteine]t=0)/([NMBA]t=0[L-cysteine]t)): −0.240
[4]; Trial 2, 170 Sec
  NMBA peak area: 2350.7 mAU's
  [NMBA] remaining: 192 µM
  ln* = ln (([NMBA]t[L-cysteine]t=0)/([NMBA]t=0[L-cysteine]t)): −0.277
[4]; Trial 3, 188 Sec
  NMBA peak area: 2237.9 mAU's
  [NMBA] remaining: 183 µM
  ln* = ln (([NMBA]t[L-cysteine]t=0)/([NMBA]t=0[L-cysteine]t)): −0.297
[4]; L-cysteine adduction, data of Table 1
  Plot Slope (ln* vs. time): −0.0012
[4]
  ka, second order rate constant of L-cysteine adduction: 14.3 M⁻¹ s⁻¹
[4]; pH 7.4 phosphate buffer with L-cysteine, calculated at [NMBA]0 0.000102 M (100 μg/ml), read-out: L-cysteine adduction reaction half time t1/2
  half-life at 100 μg/ml: 11.4 min
